Laboratory results from patent publication US11192891B2, “Diazaspiro ROCK inhibitors” (BRISTOL-MYERS SQUIBB COMPANY, priority 2017, dated 2021).

target: ROCK2 (Homo sapiens, UniProt O75116); test: ROCK kinase inhibition assay, FITC peptide substrate, LABCHIP 3000 readout; type: biochemical; conditions: 5 μM ATP, 1.5 μM peptide substrate
Outline: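 Rho kinase variants started the reaction with compound present (DMSO <2%); after incubation, EDTA stop, and phosphorylated and non-phosphorylated peptide separated by microfluidic electrophoresis. Dose-response format, inhibition calculated at each concentration.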

Sequence of ROCK2 (O75116 whole entry, species assumed): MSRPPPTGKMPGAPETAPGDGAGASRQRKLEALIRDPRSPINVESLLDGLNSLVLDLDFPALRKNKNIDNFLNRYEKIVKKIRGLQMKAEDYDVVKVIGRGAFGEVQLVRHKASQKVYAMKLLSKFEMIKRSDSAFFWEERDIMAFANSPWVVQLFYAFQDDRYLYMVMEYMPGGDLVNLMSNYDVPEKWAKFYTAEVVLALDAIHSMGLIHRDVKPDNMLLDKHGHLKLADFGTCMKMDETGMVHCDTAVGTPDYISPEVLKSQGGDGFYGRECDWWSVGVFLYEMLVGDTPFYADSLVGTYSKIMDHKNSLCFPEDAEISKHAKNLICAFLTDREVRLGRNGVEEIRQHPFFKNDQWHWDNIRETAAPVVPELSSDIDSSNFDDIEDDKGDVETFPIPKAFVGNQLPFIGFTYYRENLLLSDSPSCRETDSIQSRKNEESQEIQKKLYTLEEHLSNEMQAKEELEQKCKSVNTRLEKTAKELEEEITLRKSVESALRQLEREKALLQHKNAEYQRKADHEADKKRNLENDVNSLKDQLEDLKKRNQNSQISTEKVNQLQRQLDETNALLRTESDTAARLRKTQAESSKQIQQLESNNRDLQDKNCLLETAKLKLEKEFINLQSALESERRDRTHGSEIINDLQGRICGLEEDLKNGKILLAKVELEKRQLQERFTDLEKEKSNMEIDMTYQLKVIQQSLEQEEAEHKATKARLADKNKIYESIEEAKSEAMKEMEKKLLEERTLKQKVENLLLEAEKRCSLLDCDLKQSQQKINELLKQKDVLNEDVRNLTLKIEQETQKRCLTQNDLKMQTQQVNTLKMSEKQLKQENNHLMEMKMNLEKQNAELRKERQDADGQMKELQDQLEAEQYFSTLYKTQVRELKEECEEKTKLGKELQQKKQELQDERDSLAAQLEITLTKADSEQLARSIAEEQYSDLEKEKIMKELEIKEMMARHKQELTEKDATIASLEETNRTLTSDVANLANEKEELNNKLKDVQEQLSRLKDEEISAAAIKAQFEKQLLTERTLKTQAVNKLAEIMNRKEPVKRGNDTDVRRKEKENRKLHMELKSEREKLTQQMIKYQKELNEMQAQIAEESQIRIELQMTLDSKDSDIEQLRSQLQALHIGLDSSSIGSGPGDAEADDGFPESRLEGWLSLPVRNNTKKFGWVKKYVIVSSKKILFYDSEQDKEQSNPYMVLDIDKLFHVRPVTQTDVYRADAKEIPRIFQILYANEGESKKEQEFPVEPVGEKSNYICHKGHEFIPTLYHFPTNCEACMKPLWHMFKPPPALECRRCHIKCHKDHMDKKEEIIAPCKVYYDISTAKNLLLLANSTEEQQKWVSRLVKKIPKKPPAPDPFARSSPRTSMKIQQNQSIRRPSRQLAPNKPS

Compound | IC50
COc1cc(N2CCC3(CCN(C(=O)c4ccncc4)CC3)C2=O)ccc1-c1cn[nH]c1 [Example 56, 2-[3-methoxy-4-(1H-pyrazol-4-yl)phenyl]-8-(pyridine-4-carbonyl)-2,8-diazaspiro[4.5]decan-1-one] | 433 nM
COc1cc(N2CCC3(CCN(C(=O)c4cc5cnccc5nc4C)CC3)C2=O)ccc1-c1cn[nH]c1 [Example 165, 2-[3-methoxy-4-(1H-pyrazol-4-yl)phenyl]-8-(2-methyl-1,6-naphthyridine-3-carbonyl)-2,8-diazaspiro[4.5]decan-1-one] | 896 nM
COc1cc2cc(C(=O)N3CCC4(CC3)CCN(c3ccc(-c5cn[nH]c5)c(OC)c3)C4=O)n(C)c2cc1OC [Example 178] | 14 nM
COc1cc(N2CCC3(CCN(C(=O)c4ccc(C(F)(F)F)cn4)CC3)C2=O)ccc1-c1cn[nH]c1 [Example 98, 2-[3-methoxy-4-(1H-pyrazol-4-yl)phenyl]-8-[5-(trifluoromethyl)pyridine-2-carbonyl]-2,8-diazaspiro[4.5]decan-1-one] | 259 nM
COc1cc(N2CCC3(CCN(C(=O)c4c[nH]c5ccc(C#N)cc45)CC3)C2=O)ccc1-c1cn[nH]c1 [Example 201, 3-{2-[3-methoxy-4-(1H-pyrazol-4-yl)phenyl]-1-oxo-2,8-diazaspiro[4.5]decane-8-carbonyl}-1H-indole-5-carbonitrile] | 718 nM
COc1cc(N2CCC3(CCN(C(=O)c4ccc(N5CCN(CCC(C)(C)C)CC5)cc4)CC3)C2=O)ccc1-c1cn[nH]c1 [Example 231, 8-{4-[4-(3,3-dimethylbutyl)piperazin-1-yl]benzoyl}-2-[3-methoxy-4-(1H-pyrazol-4-yl)phenyl]-2,8-diazaspiro[4.5]decan-1-one] | 2.2 nM
COc1cc(N2CCC3(CCN(C(=O)c4ccc(-n5cncn5)nc4)CC3)C2=O)ccc1-c1cn[nH]c1 [Example 145, 2-[3-methoxy-4-(1H-pyrazol-4-yl)phenyl]-8-[6-(1H-1,2,4-triazol-1-yl)pyridine-3-carbonyl]-2,8-diazaspiro[4.5]decan-1-one] | 54 nM
COc1cc(N2CCC3(CCN(C(=O)c4ccc5c(c4)ncn5C)CC3)C2=O)ccc1-c1cn[nH]c1 [Example 164, 2-[3-methoxy-4-(1H-pyrazol-4-yl)phenyl]-8-(1-methyl-1H-1,3-benzodiazole-5-carbonyl)-2,8-diazaspiro[4.5]decan-1-one] | 2.6 nM
COc1ccc(S(=O)(=O)N2CCC3(CCN(c4ccc(-c5cn[nH]c5)c(OC)c4)C3=O)CC2)cc1 [Example 206, 2-[3-methoxy-4-(1H-pyrazol-4-yl)phenyl]-8-(4-methoxybenzenesulfonyl)-2,8-diazaspiro[4.5]decan-1-one] | 497 nM
COc1cc(N2CCC3(CCN(C(=O)c4ccc(C(N)=O)cc4)CC3)C2=O)ccc1-c1cn[nH]c1 [Example 23, 4-{2-[3-methoxy-4-(1H-pyrazol-4-yl)phenyl]-1-oxo-2,8-diazaspiro[4.5]decane-8-carbonyl}benzamide] | 36 nM
COc1ccc(C(=O)N2CCC3(CC2)CCN(c2ccc(-c4cn[nH]c4)c(OC)c2)C3=O)c(OCc2ccccc2)c1 [Example 184, 8-[2-(benzyloxy)-4-methoxybenzoyl]-2-[3-methoxy-4-(1H-pyrazol-4-yl)phenyl]-2,8-diazaspiro[4.5]decan-1-one] | 12 nM
COc1cc(N2CCC3(CCN(C(=O)c4ccc(-c5ccncc5)cc4)CC3)C2=O)ccc1-c1cn[nH]c1 [Example 171, 2-[3-methoxy-4-(1H-pyrazol-4-yl)phenyl]-8-[4-(pyridin-4-yl)benzoyl]-2,8-diazaspiro[4.5]decan-1-one] | 5.5 nM
COc1cc(N2CCC3(CCN(C(=O)c4csc(-c5ccccc5)n4)CC3)C2=O)ccc1-c1cn[nH]c1 [Example 84, 2-[3-methoxy-4-(1H-pyrazol-4-yl)phenyl]-8-(2-phenyl-1,3-thiazole-4-carbonyl)-2,8-diazaspiro[4.5]decan-1-one] | 138 nM
CCc1ccc(C(=O)N2CCC3(CC2)CCN(c2ccc(-c4cn[nH]c4)c(OC)c2)C3=O)cc1 [Example 20, 8-(4-ethylbenzoyl)-2-[3-methoxy-4-(1H-pyrazol-4-yl)phenyl]-2,8-diazaspiro[4.5]decan-1-one] | 50 nM
COc1cc(N2CCC3(CCN(C(=O)c4cnc(Cl)cn4)CC3)C2=O)ccc1-c1cn[nH]c1 [Example 115, 8-(5-chloropyrazine-2-carbonyl)-2-[3-methoxy-4-(1H-pyrazol-4-yl)phenyl]-2,8-diazaspiro[4.5]decan-1-one] | 200 nM
COc1cc(N2CCC3(CCN(C(=O)c4cccs4)CC3)C2=O)ccc1-c1cn[nH]c1 [Example 89, 2-[3-methoxy-4-(1H-pyrazol-4-yl)phenyl]-8-(thiophene-2-carbonyl)-2,8-diazaspiro[4.5]decan-1-one] | 117 nM

Continued by falling IC50, values first:

IC50 | Compound
2470 nM | COc1cc(CN2CCC(C(=O)N3CCC4(CC3)CCN(c3ccc(-c5cn[nH]c5)c(OC)c3)C4=O)CC2)ccc1F [Example 151, 8-{1-[(4-fluoro-3-methoxyphenyl)methyl]piperidine-4-carbonyl}-2-[3-methoxy-4-(1H-pyrazol-4-yl)phenyl]-2,8-diazaspiro[4.5]decan-1-one]
851 nM | COc1cc(N2CCC3(CCN(C(=O)c4ccc(-c5ccccc5)o4)CC3)C2=O)ccc1-c1cn[nH]c1 [Example 85, 2-[3-methoxy-4-(1H-pyrazol-4-yl)phenyl]-8-(5-phenylfuran-2-carbonyl)-2,8-diazaspiro[4.5]decan-1-one]
27 nM | COc1cc(N2CCC3(CCN(C(=O)c4ccc(CN5CCOCC5)cc4)CC3)C2=O)ccc1-c1cn[nH]c1 [Example 180, 2-[3-methoxy-4-(1H-pyrazol-4-yl)phenyl]-8-{4-[(morpholin-4-yl)methyl]benzoyl}-2,8-diazaspiro[4.5]decan-1-one]
17 nM | COc1ccc(C(=O)N2CCC3(CC2)CCN(c2ccc(-c4cn[nH]c4)c(OC)c2)C3=O)c(Br)c1 [Example 161, 8-(2-bromo-4-methoxybenzoyl)-2-[3-methoxy-4-(1H-pyrazol-4-yl)phenyl]-2,8-diazaspiro[4.5]decan-1-one]
13 nM | COc1cc(N2CCC3(CCN(C(=O)c4ccc(CS(C)(=O)=O)cc4)CC3)C2=O)ccc1-c1cn[nH]c1 [Example 169, 8-[4-(methanesulfonylmethyl)benzoyl]-2-[3-methoxy-4-(1H-pyrazol-4-yl)phenyl]-2,8-diazaspiro[4.5]decan-1-one]
13 nM | COc1cc(N2CCC3(CCN(C(=O)c4ccc(-n5ccnc5)cc4)CC3)C2=O)ccc1-c1cn[nH]c1 [Example 95, 8-[4-(1H-imidazol-1-yl)benzoyl]-2-[3-methoxy-4-(1H-pyrazol-4-yl)phenyl]-2,8-diazaspiro[4.5]decan-1-one]
5 nM | COc1cc(N2CCC3(CCN(C(=O)c4cc5ncc(Br)cn5n4)CC3)C2=O)ccc1-c1cn[nH]c1 [Example 93, 8-{6-bromopyrazolo[1,5-a]pyrimidine-2-carbonyl}-2-[3-methoxy-4-(1H-pyrazol-4-yl)phenyl]-2,8-diazaspiro[4.5]decan-1-one]
1.3 nM | CN1CCN(c2ccc(C(=O)N3CCC4(CC3)CCN(c3ccc(-c5ccncc5F)cc3)C4=O)cc2)CC1 [Example 33, 2-[4-(3-fluoropyridin-4-yl)phenyl]-8-[4-(4-methylpiperazin-1-yl)benzoyl]-2,8-diazaspiro[4.5]decan-1-one]
